Reference: paper PMC11647725, “Discovery of 4-(5-Membered)Heteroarylether-6-methylpicolinamide Negative Allosteric Modulators of Metabotropic Glutamate Receptor Subtype 5” (ACS Medicinal Chemistry Letters, 2024)

Columns and labels:
[1] = Binding in brain homogenate from rat (equilibrium dialysis); format: in vitro ADME; conditions: rat, brain homogenate, rat brain homogenates, read-out: Rat fu,brain
Experimental: transferred to the corresponding wells of new daughter plates (96-shallow-well, V bottom) containing water (Milli-Q, 60 µL/well), and the plates were sealed in preparation for LC-MS/MS analysis (see below). fu was calculated as (analyte to IS MS peak area ratio from Trans-buffer side) / (analyte to IS MS peak area ratio from Cis-plasma side). Mean values for each species were calculated from 3 replicates.
Binding in brain homogenate from rat.
Determination of fraction unbound (f u) in brain homogenate from rat was conducted using the same methodology and procedure than described for plasma protein binding assay with the following modifications: 1) a final compound concentration of 1 μM was used, 2) naïve rat brains were homogenized in DPBS (1:3 composition of brain: DPBS, w/w) using a Mini-Bead Beater™ machine in order to obtain […]
The diluted fraction unbound (f u2) in brain was calculated as (analyte to IS MS peak area ratio from Trans-buffer side) / (analyte to IS MS peak area ratio from Cis-brain homogenate side). Undiluted fraction unbound for the brain was calculated using the following equation: […]
(§1) Mean values for each species were calculated from 3 replicates. […]

[2] = Binding in plasma from rat (equilibrium dialysis); format: in vitro ADME; conditions: rat, plasma, fraction unbound; equilibrium dialysis; read-out: Rat fu,plasma
Experimental: Binding in plasma from rat and human.
Determination of compounds’ fraction unbound (f u) in plasma from rat and human was conducted in vitro via equilibrium dialysis using HTDialysis membrane plates. Dialysis membranes (four paired strips per HTD assay) were hydrated as described by the manufacturer and inserted into the HTD plate, which was assembled and prepared for sample addition by the dispensing of blank buffer (DPBS, 100 µL/well) into the ‘top half’ of each membrane-split well. Each compound was diluted into plasma from each species (5 µM final concentration), which was aliquoted in triplicate to the ‘bottom half’ of the prepared HTD plate wells. The HTD plate was sealed and incubated for 6 hours at 37 °C. Following incubation, each well (both top and bottom halves) were transferred (20 µL) to the corresponding wells of a 96-shallow-well (V-bottom) plate. The daughter plates were then matrix-matched (buffer side wells received equal volume of plasma, and plasma side wells received equal volume of buffer), and extraction solution (120 µL; acetonitrile containing 50 nM carbamazepine as IS) was added to all wells of both daughter plates to precipitate protein and extract test article. The plates were then sealed and centrifuged (3500 rcf) for 10 minutes at ambient temperature. Supernatant (60 µL) from each well of the daughter plates was then transferred to the corresponding wells of new daughter plates (96-shallow-well, V bottom) containing water (Milli-Q, 60 µL/well), and the plates were sealed in preparation for LC-MS/MS analysis (see below). fu was calculated as (analyte to IS MS peak area ratio from Trans-buffer side) / (analyte to IS MS peak area ratio from Cis-plasma side). Mean values for each species were calculated from 3 replicates. […]
as §1
(§2) After 5 minutes (pre-incubation), reactions were initiated by addition of nicotinamide adenine dinucleotide phosphate (NADPH, 1 mM final concentration). At selected time intervals (0, 3, 7, 15, 25, and 45 minutes) post-addition of NADPH, aliquots (50 µL) were taken and placed into a 96-shallow-well plate containing ice cold acetonitrile (150 µL) with carbamazepine (IS, 50 nM). The plates were then centrifuged (3000 rcf at 4 °C) for 10 minutes. The supernatants were transferred to a new 96-shallow-well daughter plate and diluted (1:1 v/v) with water (Milli-Q filtered). The plates were then sealed in preparation for LC-MS/MS analysis (see below).

[3] = Intrinsic clearance in rat liver microsomes; format: in vitro ADME
Experimental: Mean values for each species were calculated from 3 replicates.
Intrinsic Clearance in Rat and Human Liver Microsomes
The in vitro intrinsic clearance (CL int) was investigated in commercially obtained hepatic microsomes from rat and human donors using the substrate depletion (i.e., loss-of-parent vs. time, or t 1/2 method) approach with analyte detection via liquid chromatography-tandem mass spectrometry (LC-MS/MS). For each species, mean %parent remaining values at each time point were calculated from replicates raw data (analyte:IS peak area ratios) and used to determine in vitro t 1/2 and CLint.
as §2, with “Experiments were carried out using a robot-assisted (TECAN model Evo 200). Compound was incubated (1 µM final concentration) in buffer (100 mM potassium phosphate pH 7.4 with 3 mM MgCl2) containing hepatic microsomes (0.5 mg/mL final concentration) from multiple species, discretely, at 37 °C under constant orbital shaking. After” for “After”
Raw LC-MS/MS peak area data generated from the assay samples were used to construct natural log-transformed %parent remaining vs. time plots (using t = 0 minute post-NADPH addition sample data as starting point set to 100%). In vitro compound half-life (t 1/2) values were obtained using the following […]
k is the slope from linear regression analysis of the natural log-transformed data (using means from Where all replicates at each time point). Resulting t 1/2 values were then used to calculate hepatic CLint values according to the following equation and with the use of species-specific scale-up factors for liver weight (grams) per total body weight (kg): […]
CLint = in vitro t1/2 x 0.5 mg microsomes x 1 gram liver x kg body wt aScale-up factors used are 45 (rat) and 20 (human).4
Predicted hepatic clearance (CLhep) was calculated using the following equation: […]
Qh represents hepatic blood flow (mL/min/kg): 21 for human, 70 for rat, and 90 for mouse.
Prepared samples were injected (10 µL each) onto an AB Sciex Triple Quad 4500 mass spectrometer system with an Agilent 1260 Infinity II pump and autosampler. Mass spectrometer conditions are described in Table S1. Quantitation of compounds was performed via AB Sciex Multiquant software using the raw analyte:IS peak area ratios. The typical detection range was 0.5 ng/mL to ≥ 5,000 ng/mL utilizing a quadratic equation regression with 1/x2 weighting.
Correction for dilution of all brain samples (in extraction buffer and subsequently in blank plasma, as previously described) was performed post-quantitation. The corrections for dilution in extraction buffer employed correction factors specific to each brain weight (not shown).

[4] = target: Transporter, Norepinephrine (NET) (Homo sapiens, UniProt P23975); assay: Lead Profiling Screen, Eurofins Panlabs; format: binding; conditions: hum, read-out: % inh at 10 μM
Sequence of Transporter, Norepinephrine (NET) (P23975 whole entry): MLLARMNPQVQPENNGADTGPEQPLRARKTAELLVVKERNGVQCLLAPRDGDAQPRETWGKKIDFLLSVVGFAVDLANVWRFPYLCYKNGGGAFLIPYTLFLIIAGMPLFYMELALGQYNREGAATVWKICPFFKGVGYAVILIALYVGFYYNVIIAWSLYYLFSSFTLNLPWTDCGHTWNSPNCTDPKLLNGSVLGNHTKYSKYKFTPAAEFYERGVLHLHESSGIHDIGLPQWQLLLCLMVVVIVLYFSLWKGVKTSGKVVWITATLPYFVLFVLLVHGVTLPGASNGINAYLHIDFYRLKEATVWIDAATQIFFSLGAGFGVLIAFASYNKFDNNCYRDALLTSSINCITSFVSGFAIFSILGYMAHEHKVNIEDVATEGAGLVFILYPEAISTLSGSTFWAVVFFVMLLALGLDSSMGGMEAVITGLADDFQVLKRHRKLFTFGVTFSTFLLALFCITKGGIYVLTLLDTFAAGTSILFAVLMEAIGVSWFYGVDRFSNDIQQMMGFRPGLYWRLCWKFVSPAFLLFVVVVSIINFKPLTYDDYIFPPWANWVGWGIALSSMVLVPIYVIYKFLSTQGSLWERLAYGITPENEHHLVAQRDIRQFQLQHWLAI

Opiate δ1 (OP1, DOP) = Opiate δ1 (OP1, DOP) (Homo sapiens, UniProt P41143); assay: Lead Profiling Screen, Eurofins Panlabs; format: binding; conditions: hum, read-out: % inh at 10 μM
Sequence of Opiate δ1 (OP1, DOP) (P41143 whole entry): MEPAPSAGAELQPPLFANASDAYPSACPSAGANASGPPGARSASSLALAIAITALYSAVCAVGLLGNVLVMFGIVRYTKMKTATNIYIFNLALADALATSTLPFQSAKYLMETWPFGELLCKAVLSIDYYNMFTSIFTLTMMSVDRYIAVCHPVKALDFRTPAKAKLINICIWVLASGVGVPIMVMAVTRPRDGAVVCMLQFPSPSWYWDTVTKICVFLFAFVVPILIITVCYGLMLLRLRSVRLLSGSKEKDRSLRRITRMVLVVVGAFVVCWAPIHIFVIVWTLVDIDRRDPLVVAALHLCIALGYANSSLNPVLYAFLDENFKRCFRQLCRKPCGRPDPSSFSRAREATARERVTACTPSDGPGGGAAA

hERG potassium channel = hERG potassium channel (Homo sapiens, UniProt Q12809); assay: Lead Profiling Screen, Eurofins Panlabs; format: binding; conditions: hum, read-out: % inh at 10 μM
Sequence of hERG potassium channel (Q12809 whole entry): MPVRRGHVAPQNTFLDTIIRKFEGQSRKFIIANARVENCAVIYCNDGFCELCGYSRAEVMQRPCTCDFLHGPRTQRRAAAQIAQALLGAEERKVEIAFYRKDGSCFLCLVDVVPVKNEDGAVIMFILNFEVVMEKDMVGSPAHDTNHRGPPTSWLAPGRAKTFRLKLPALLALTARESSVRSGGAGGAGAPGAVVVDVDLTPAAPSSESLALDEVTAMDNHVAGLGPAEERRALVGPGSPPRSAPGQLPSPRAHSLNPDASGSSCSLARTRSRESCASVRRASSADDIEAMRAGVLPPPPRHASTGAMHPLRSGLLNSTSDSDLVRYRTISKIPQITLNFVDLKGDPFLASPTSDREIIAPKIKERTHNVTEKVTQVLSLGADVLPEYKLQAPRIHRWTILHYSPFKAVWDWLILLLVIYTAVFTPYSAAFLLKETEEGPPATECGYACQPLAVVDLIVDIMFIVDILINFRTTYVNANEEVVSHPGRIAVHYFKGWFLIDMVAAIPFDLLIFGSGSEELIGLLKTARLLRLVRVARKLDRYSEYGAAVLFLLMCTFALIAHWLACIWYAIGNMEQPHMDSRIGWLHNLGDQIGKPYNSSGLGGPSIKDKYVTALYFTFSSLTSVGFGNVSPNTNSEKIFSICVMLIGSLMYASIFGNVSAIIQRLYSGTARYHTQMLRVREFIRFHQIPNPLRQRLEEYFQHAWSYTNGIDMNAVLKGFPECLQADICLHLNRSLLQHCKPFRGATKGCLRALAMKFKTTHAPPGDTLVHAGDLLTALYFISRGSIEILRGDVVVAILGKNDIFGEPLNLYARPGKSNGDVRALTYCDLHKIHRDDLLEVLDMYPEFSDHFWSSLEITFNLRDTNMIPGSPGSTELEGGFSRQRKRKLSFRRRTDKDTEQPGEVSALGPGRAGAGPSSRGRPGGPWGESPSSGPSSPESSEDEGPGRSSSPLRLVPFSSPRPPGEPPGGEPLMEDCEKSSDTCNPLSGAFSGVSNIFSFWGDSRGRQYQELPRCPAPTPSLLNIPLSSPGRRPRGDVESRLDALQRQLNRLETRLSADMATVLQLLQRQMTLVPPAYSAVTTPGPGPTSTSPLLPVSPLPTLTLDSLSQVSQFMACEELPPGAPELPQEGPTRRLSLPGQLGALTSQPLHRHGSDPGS

Cc1cc(Oc2cnn(C)c2)cc(C(=O)Nc2ccc(F)cn2)n1 [22iA]
fraction unbound at 6 h, 1 µM [1]: 0.012 | fraction unbound at 6 h, 5 µM [2]: 0.059 | CLint scaled at 40 min, 1 µM ([3]; pH 7.4, rat liver microsomes): 48 mL/min/kg | CLhep, rat ([3]; predicted hepatic clearance based on microsomal CLint): 28 mL/min/kg | inhibition at 10 µM [4]: 63% | inhibition at 10 µM (Opiate δ1 (OP1, DOP)): 3% | inhibition at 10 µM (hERG potassium channel): 14%
